± gives the expanded uncertainty stated by the source.
Assay: mn = molality of the nth substance listed, in mol/kg
Conditions: for surface tension liquid-gas: Pendant drop shape; for electrical conductivity: Liquid, Digital conductivity meter

CCCCCCCCCCCCCC[N+](C)(C)CCO.[Br-] [N-tetradecyl-hydroxyethyl-dimethyl ammonium bromide] + O
Conditions | electrical conductivity [S/m] | surface tension liquid-gas [mN/m]
298.15 K, m1 = 0.0003 | – | 66.02 ± 0.59
298.15 K, m1 = 0.0006 | – | 60.97 ± 0.55
298.15 K, m1 = 0.00081 | – | 58.35 ± 0.53
298.15 K, m1 = 0.00101 | – | 55.52 ± 0.51
298.15 K, m1 = 0.00151 | – | 49.52 ± 0.46
298.15 K, m1 = 0.00201 | – | 45.03 ± 0.43
298.15 K, m1 = 0.00252 | – | 41.15 ± 0.4
298.15 K, m1 = 0.00258 | 0.0207 ± 0.0001 | –
298.15 K, m1 = 0.00268 | 0.0215 ± 0.0001 | –
298.15 K, m1 = 0.00279 | 0.0223 ± 0.0001 | –
298.15 K, m1 = 0.00291 | 0.0232 ± 0.0001 | –
298.15 K, m1 = 0.00302 | – | 38.35 ± 0.38
298.15 K, m1 = 0.00303 | 0.0241 ± 0.0001 | –
298.15 K, m1 = 0.00317 | 0.0251 ± 0.0001 | –
298.15 K, m1 = 0.00332 | 0.0261 ± 0.0001 | –
298.15 K, m1 = 0.00349 | 0.027 ± 0.0001 | –
298.15 K, m1 = 0.00367 | 0.0275 ± 0.0001 | –
298.15 K, m1 = 0.00388 | 0.028 ± 0.0001 | –
298.15 K, m1 = 0.00403 | – | 37.57 ± 0.37
298.15 K, m1 = 0.00411 | 0.0285 ± 0.0001 | –
298.15 K, m1 = 0.00436 | 0.029 ± 0.0001 | –
298.15 K, m1 = 0.00465 | 0.0296 ± 0.0001 | –
298.15 K, m1 = 0.00499 | 0.0302 ± 0.0001 | –
298.15 K, m1 = 0.00503 | – | 37.62 ± 0.37
298.15 K, m1 = 0.00537 | 0.0309 ± 0.0001 | –
298.15 K, m1 = 0.00582 | 0.0318 ± 0.0001 | –
298.15 K, m1 = 0.00604 | – | 37.61 ± 0.37
298.15 K, m1 = 0.00635 | 0.0328 ± 0.0001 | –
298.15 K, m1 = 0.00698 | 0.034 ± 0.0001 | –
298.15 K, m1 = 0.00806 | – | 37.61 ± 0.37
303.15 K, m1 = 0.00258 | 0.0231 ± 0.0001 | –
303.15 K, m1 = 0.00268 | 0.024 ± 0.0001 | –
303.15 K, m1 = 0.00279 | 0.0249 ± 0.0001 | –
303.15 K, m1 = 0.0029 | 0.026 ± 0.0001 | –
303.15 K, m1 = 0.00303 | 0.0269 ± 0.0001 | –
303.15 K, m1 = 0.00317 | 0.028 ± 0.0001 | –
303.15 K, m1 = 0.00332 | 0.0292 ± 0.0001 | –
303.15 K, m1 = 0.00348 | 0.0303 ± 0.0001 | –
303.15 K, m1 = 0.00367 | 0.031 ± 0.0001 | –
303.15 K, m1 = 0.00387 | 0.0316 ± 0.0001 | –
303.15 K, m1 = 0.0041 | 0.0322 ± 0.0001 | –
303.15 K, m1 = 0.00436 | 0.0328 ± 0.0001 | –
303.15 K, m1 = 0.00465 | 0.0335 ± 0.0001 | –
303.15 K, m1 = 0.00498 | 0.0342 ± 0.0001 | –
303.15 K, m1 = 0.00536 | 0.035 ± 0.0001 | –
303.15 K, m1 = 0.00581 | 0.036 ± 0.0001 | –
303.15 K, m1 = 0.00634 | 0.0372 ± 0.0001 | –
303.15 K, m1 = 0.00697 | 0.0385 ± 0.0001 | –
308.15 K, m1 = 0.00258 | 0.0254 ± 0.0001 | –
308.15 K, m1 = 0.00268 | 0.0263 ± 0.0001 | –
308.15 K, m1 = 0.00278 | 0.0274 ± 0.0001 | –
308.15 K, m1 = 0.0029 | 0.0283 ± 0.0001 | –
308.15 K, m1 = 0.00303 | 0.0295 ± 0.0001 | –
308.15 K, m1 = 0.00316 | 0.0308 ± 0.0001 | –
308.15 K, m1 = 0.00331 | 0.0321 ± 0.0001 | –
308.15 K, m1 = 0.00348 | 0.0334 ± 0.0001 | –
308.15 K, m1 = 0.00366 | 0.0346 ± 0.0001 | –
308.15 K, m1 = 0.00387 | 0.0352 ± 0.0001 | –
308.15 K, m1 = 0.00409 | 0.0359 ± 0.0001 | –
308.15 K, m1 = 0.00435 | 0.0366 ± 0.0001 | –
308.15 K, m1 = 0.00464 | 0.0374 ± 0.0001 | –
308.15 K, m1 = 0.00497 | 0.0383 ± 0.0001 | –
308.15 K, m1 = 0.00535 | 0.0393 ± 0.0001 | –
308.15 K, m1 = 0.0058 | 0.0404 ± 0.0001 | –
308.15 K, m1 = 0.00633 | 0.0418 ± 0.0001 | –
308.15 K, m1 = 0.00696 | 0.0435 ± 0.0001 | –
313.15 K, m1 = 0.00257 | 0.0278 ± 0.0001 | –
313.15 K, m1 = 0.00267 | 0.0287 ± 0.0001 | –
313.15 K, m1 = 0.00278 | 0.0298 ± 0.0001 | –
313.15 K, m1 = 0.00289 | 0.0311 ± 0.0001 | –
313.15 K, m1 = 0.00302 | 0.0325 ± 0.0001 | –
313.15 K, m1 = 0.00316 | 0.0339 ± 0.0001 | –
313.15 K, m1 = 0.00331 | 0.0354 ± 0.0001 | –
313.15 K, m1 = 0.00347 | 0.037 ± 0.0001 | –
313.15 K, m1 = 0.00366 | 0.0385 ± 0.0001 | –
313.15 K, m1 = 0.00386 | 0.0395 ± 0.0001 | –
313.15 K, m1 = 0.00409 | 0.0405 ± 0.0001 | –
313.15 K, m1 = 0.00434 | 0.0414 ± 0.0001 | –
313.15 K, m1 = 0.00463 | 0.0421 ± 0.0001 | –
313.15 K, m1 = 0.00496 | 0.0431 ± 0.0001 | –
313.15 K, m1 = 0.00534 | 0.0441 ± 0.0001 | –
313.15 K, m1 = 0.00579 | 0.0455 ± 0.0001 | –
313.15 K, m1 = 0.00631 | 0.0472 ± 0.0001 | –
313.15 K, m1 = 0.00695 | 0.0491 ± 0.0001 | –
318.15 K, m1 = 0.00257 | 0.0307 ± 0.0001 | –
318.15 K, m1 = 0.00267 | 0.0317 ± 0.0001 | –
318.15 K, m1 = 0.00277 | 0.0329 ± 0.0001 | –
318.15 K, m1 = 0.00289 | 0.0343 ± 0.0001 | –
318.15 K, m1 = 0.00301 | 0.0356 ± 0.0001 | –
318.15 K, m1 = 0.00315 | 0.037 ± 0.0001 | –
318.15 K, m1 = 0.0033 | 0.0385 ± 0.0001 | –
318.15 K, m1 = 0.00347 | 0.0407 ± 0.0001 | –
318.15 K, m1 = 0.00365 | 0.0426 ± 0.0001 | –
318.15 K, m1 = 0.00385 | 0.044 ± 0.0001 | –
318.15 K, m1 = 0.00408 | 0.0454 ± 0.0001 | –
318.15 K, m1 = 0.00433 | 0.0465 ± 0.0001 | –
318.15 K, m1 = 0.00462 | 0.0475 ± 0.0001 | –
318.15 K, m1 = 0.00495 | 0.0488 ± 0.0001 | –
318.15 K, m1 = 0.00533 | 0.0499 ± 0.0001 | –
318.15 K, m1 = 0.00578 | 0.0514 ± 0.0001 | –
318.15 K, m1 = 0.0063 | 0.0531 ± 0.0001 | –
318.15 K, m1 = 0.00693 | 0.0552 ± 0.0001 | –
323.15 K, m1 = 0.00256 | 0.0332 ± 0.0001 | –
323.15 K, m1 = 0.00266 | 0.0345 ± 0.0001 | –
323.15 K, m1 = 0.00277 | 0.0357 ± 0.0001 | –
323.15 K, m1 = 0.00288 | 0.0372 ± 0.0001 | –
323.15 K, m1 = 0.00301 | 0.0389 ± 0.0001 | –
323.15 K, m1 = 0.00314 | 0.0404 ± 0.0001 | –
323.15 K, m1 = 0.00329 | 0.0423 ± 0.0001 | –
323.15 K, m1 = 0.00346 | 0.0442 ± 0.0001 | –
323.15 K, m1 = 0.00364 | 0.0465 ± 0.0001 | –
323.15 K, m1 = 0.00384 | 0.0487 ± 0.0001 | –
323.15 K, m1 = 0.00407 | 0.0506 ± 0.0001 | –
323.15 K, m1 = 0.00432 | 0.0522 ± 0.0001 | –
323.15 K, m1 = 0.00461 | 0.0535 ± 0.0001 | –
323.15 K, m1 = 0.00494 | 0.0547 ± 0.0001 | –
323.15 K, m1 = 0.00532 | 0.0563 ± 0.0001 | –
323.15 K, m1 = 0.00576 | 0.0581 ± 0.0001 | –
323.15 K, m1 = 0.00629 | 0.0598 ± 0.0001 | –
323.15 K, m1 = 0.00692 | 0.062 ± 0.0001 | –
